“Also recorded” adds a separate entry of the source.
Experiments:
[1] = stability in water solution; assay type: physicochemical; conditions: decomposition especially at a low pH
solubility in water = assay type: physicochemical
[2] = administered intravenously to a human patient; average; cited from earlier work

SMILES | stability in water solutions [1] | solubility in water (solubility in water) | half-life of elimination [2]
CC(C)(C)OC(=O)N1CC2CC(CN(C[C@H](O)COc3ccc(C#N)cc3)C2)C1 [Compound A, 3,7-diazabicyclo[3.3.1]-nonane-3-carboxylic acid, 7-[(2S)-3-(4-cyanophenoxy)-2-hydroxypropyl]-1,1-dimethylethyl ester] | unstable in water solutions; also recorded: decomposition in water solution | poorly soluble in water; also recorded: low water solubility | 
CCCCCCCN(CC)CCCC(O)c1ccc(NS(C)(=O)=O)cc1 (stereo not drawn) [ibutilide] |  |  | around 6 hours

— patent US6492382B1, “Dried or frozen pharmaceutical preparation containing a class III antiarrhythmic compound” (AstraZeneca AB, priority 1998, dated 2002)
